According to ChEMBL document CHEMBL3886674, “Aminopyrimidine derivatives for use as modulators of kinase activity” (2016):

Molecular target: Ribosomal protein S6 kinase beta-1 (Homo sapiens, UniProt P23443, T412E)
Test: Enzyme Assay: P70S6K inhibitor compounds were diluted and plated in 96 well plates. A reaction mixture including the following components was then added to the compound plate to initiate the enzyme reaction; P70S6K (3 nM, T412E mutant, Millipore) was mixed with 24 μM ATP in an assay buffer containing 100 mM Hepes (pH 7.5), 5 mM MgCl2, 1 mM DTT, 0.015% Brij and 1 μM of the substrate peptide FITC-AHA-AKRRRLSSLRA-OH (derived from the S6 ribosomal protein sequence, FITC=fluorescein isothiocyanate, AHA=6-aminohexanoic acid). The reaction was incubated for 90 min at 25° C., before the addition of 10 mM EDTA to stop the reaction.

Sequence of Ribosomal protein S6 kinase beta-1 (P23443 whole entry T412E): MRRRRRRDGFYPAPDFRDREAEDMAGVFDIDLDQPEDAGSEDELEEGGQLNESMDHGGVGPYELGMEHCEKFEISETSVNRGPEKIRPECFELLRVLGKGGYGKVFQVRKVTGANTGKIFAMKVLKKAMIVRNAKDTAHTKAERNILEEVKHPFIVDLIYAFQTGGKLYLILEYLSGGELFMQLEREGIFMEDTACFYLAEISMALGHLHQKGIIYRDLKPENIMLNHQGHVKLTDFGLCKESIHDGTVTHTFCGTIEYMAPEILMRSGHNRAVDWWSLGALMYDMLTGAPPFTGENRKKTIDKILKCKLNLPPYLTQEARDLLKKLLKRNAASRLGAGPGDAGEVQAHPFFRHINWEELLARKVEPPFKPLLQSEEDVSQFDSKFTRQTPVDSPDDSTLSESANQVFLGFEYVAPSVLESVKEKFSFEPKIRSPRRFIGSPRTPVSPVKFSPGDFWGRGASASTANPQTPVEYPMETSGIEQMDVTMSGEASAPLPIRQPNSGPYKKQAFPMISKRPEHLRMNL

IC50 | SMILES
13 nM | Nc1ncnc(N2CCC(C(N)c3ccc(Cl)cc3)CC2)c1-c1ccc(F)cc1 (stereo not drawn)
17 nM | Nc1ncnc(N2CCC(C(N)c3ccc(-c4ccc(F)cc4)cc3)CC2)c1-c1ccc(F)cc1 (stereo not drawn)
27 nM | Nc1ncnc(N2CCC(C(N)c3ccc(F)cc3)CC2)c1-c1ccc(F)cc1 (stereo not drawn)
